# According to patent US20240117313A1, “METHOD FOR PRODUCING THREE-DIMENSIONAL TISSUE BODY AND METHOD FOR PROMOTING DIFFERENTIATION OF ADIPOSE-DERIVED STEM CELLS” (TOPPAN INC., priority 2021, published 2024):
# Read-outs that look alike come from different tables or passages of the source.
# Tests used:
# [1] = system: subcutaneous fat-derived stein cells; conditions: day 7 of differentiation
# Procedure: (§1) Onto a 96-well plate (manufactured by IWAKI), 2 μL of FBS-free DMEM containing 1.2% by weight (final concentration) of the defibered collagen component, 6 mg/mL (final concentration) fibrinogen, 3 U/mL (final concentration) thrombin, and 5×10^6 cells/mL of subcutaneous fat-derived stein cells was seeded and incubated for 15 minutes, 200 μL of DMEM culture medium was then added, and culture was performed for 48 hours.
# The three-dimensional tissue constructs obtained were each subjected to fat staining with Nile red, and Hoechst staining for staining nuclei. In the same manner as in Production Example 1, fluorescence intensity for fat staining (Nile red) relative to fluorescence intensity for nucleic staining (Hoechst) was calculated, and increase rates of fluorescence intensity with reference to that of the three-dimensional tissue constructs cultured in DMEM culture medium containing no ALK5 inhibitor were calculated (three samples were used for each conditions).
# [2] = system: subcutaneous fat-derived stein cells; conditions: for adipogenesis (fat staining with Nile red): FIG. 5
# Procedure: as §1
smiles,measurement,setting,value
"Cc1cccc(-c2n[nH]cc2-c2ccc3ncccc3n2)n1 [ALK5 inhibitor, 2-[3-(6-methyl-2-pyridinyl)-1H-pyrazol-4-yl]-1,5-naphthyridine]",increase in fluorescence intensity (Nile red relative to Hoechst),"[1]; 5 μM or more of the ALK5 inhibitor in DMEM with seven fatty acids each 50 μM, vs no ALK5 inhibitor, FIG. 4",≥ 3 fold
same,adipogenesis (fat staining with Nile red),"[1]; ALK5 inhibitor 1, 5 or 10 μM in DMEM with seven fatty acids each 50 μM, vs medium containing no ALK5 inhibitor, FIG. 3",had proceeded more
same,differentiation of fat-derived stein cells into mature adipocytes,[1]; addition of the ALK5 inhibitor to DMEM with seven fatty acids each 50 μM,promoted
same,adipogenesis (fat staining with Nile red),"[2]; ALK5 inhibitor 5 μM with seven fatty acids each in 50 IIM, day 3, day 7 and day 14 of differentiation",had proceeded
same,difference in increase rates of fluorescence intensity between day 7 and day 14 of culture,"[2]; ALK5 inhibitor 5 μM, FIG. 6",No large difference
same,adipogenesis (fat staining with Nile red),"[2]; ALK5 inhibitor 5 μM, day 7 of culture and day 14 of culture (in particular)",had more proceeded
same,increase in fluorescence intensity vs medium containing no ALK5 inhibitor,"[2]; ALK5 inhibitor 5 μM, day 7 of culture and day 14 of culture, FIG. 6",significant
